Reference: patent EP1762239A1, “Lofexidine for intraspinal administration” (Texcontor Etablissement, priority 2005, dated 2007)
“And” between values parts separate entries of the source, which are not always exact repeats. Equal values may be shown once. Where a name gives a salt, the structure may show the parent alone. Marks after values point to notes of the source that are not given here.

Key:
[1] = system: rat model of post-operative pain; experiment: Rat model of post-operative pain (plantar incision), tactile allodynia by electronic von Frey; format: in vivo, Wistar rats; conditions: for Tactile Pressure (g) Post-treatment 15min. / Tactile Pressure (g) Post-treatment 30min. / Tactile Pressure (g) Post-treatment 60min. / Tactile Pressure (g) Post-treatment 120 min.: 24 hours after surgery, single readings at 4 points per rat; for Tactile Pressure (g) Post-treatment 15min. Ave. / Tactile Pressure (g) Post-treatment 30min. Ave. / Tactile Pressure (g) Post-treatment 60min. Ave. / Tactile Pressure (g) Post-treatment 120 min. Ave.: average of 4 points; for Tactile Pressure (g) Post-treatment 15min. Mean / Tactile Pressure (g) Post-treatment 30min. Mean / Tactile Pressure (g) Post-treatment 60min. Mean / Tactile Pressure (g) Post-treatment 120 min. Mean: group mean of 5 rats; for Δ Treatment 15min. / Δ Treatment 30min. / Δ Treatment 60min. / Δ Treatment 120 min.: (Post-Treatment) - (Pre-Treatment)
Experimental: Lofexidine at 0.00032 and 0.0032 mg/rat injected intrathecally (ITH) was evaluated for possible analgesic activity in a rat model of post-operative pain which was induced with an incision made on the plantar surface of the hind paw. To measure tactile allodynia, a supertip with a flattened surface connected to Electrovonfrey Aesthethiometer (IITC, USA) was applied slowly and gently onto the plantar surface of the hind paw, where 4 points around the incision were identified. The endpoint is the mean withdrawal threshold values (gm) in response to von Frey filament, serving as a measure of analgesic activity. Percent inhibition was calculated as Δ treatment values (change in threshold pressure caused by treatment) relative to Δ blank values (change in threshold value caused by incision). Lofexidine.HCl was dissolved in 0.9% NaCl and at doses of 0.00032 and 0.0032 mg/rat was administered intrathecally (ITH). The dosing volume was 10 µl/rat. Male Wistar derived rats weighing 270 ± 30 g provided by BioLasco Taiwan (under Charles River Laboratories Technology licensee) were used. Space allocation for animals was 45 x 23 x 15 cm for 6 rats. Animals were housed in APEC^R cages. All animals were maintained in a controlled temperature (22-24°C) and humidity (60%-80%) environment with 12 hours light dark cycles for at least one week in MDS Pharma Services-Taiwan Laboratory prior to use. Free access to standard lab chow (Lab Diet, Rodent Diet, PMI Nutrition International, USA) and tap water was granted. All aspects of this work including housing, experimentation and disposal of animals were performed in general accordance with the Guide for the Care and Use of Laboratory Animals (National Academy Press, Washington, D. C, 1996). Groups of 5 male Wistar rats weighing 270 ± 30 g were used. Prior to surgery, individual animals were acclimatised to the testing environment and baseline responses to Electronic Von Frey Aesthesiometer (2290CE Electrovonfrey®, IITC, USA) with a rigid tip were performed (Pre-Incision). Under pentobarbital (50 mg/kg, 5 ml/kg, i.p.) anesthesia, the left hind paw was aseptically prepared. A 1-cm longitudinal incision was made with a number 11 blade, through the skin and fascia of the plantar aspect of the foot, starting 0.5 cm from the proximal edge of the heel and extending toward the toes. The plantaris muscle was elevated and incised longitudinally, followed by crushing with a mosquito hemostat for 20 seconds. The muscle origin and insertion remained intact After hemostasis with gentle pressure, the skin and fascia were then closed as one layer using 4-0 silk suture. Evaluation for pain was performed at 24 hours postoperatively between 08:00 and 16:00h. Each animal was monitored at 15, 30, 60 and 120 minutes after intrathecal administration of lofexidine.HCl. The rats were placed under inverted plexiglas cages on a wire mesh rack and a brief observation of general behavior post-injection was made. The rigid tip part of the Electronic Von Frey Aesthesiometer was applied perpendicularly from underneath the mesh floor to the four points around the wound surface of the animal with slow upward force against the paw. A positive response to tactile pressure was recorded if the paw was sharply withdrawn; ambulation was considered an ambiguous response, and in such cases, the stimulus was reapplied. Mean values from 4 points for each rat and from 5 rats in each group were calculated. Percent inhibition due to treatment relative to pre-treatment pain response was calculated according to the formula: Tactile Pressure [(Post-Treatment) - (Pre-Treatment)]/[(Pre-Incision) - (Pre-Treatment)] x 100%. Inhibition by 50% or more (≥50%) is considered significant analgesic effect. Unpaired Student's t test is applied for comparison of the % inhibition values between test substance-and vehicle-treated groups. Significance is considered at P<0.05 level

[2] = systemically (e.g. orally or by intravenous injection), especially at high doses (e.g. >600 µg per day); cited from earlier work
[3] = 0.00032 mg/rat ITH, individual rat
[4] = 0.00032 mg/rat ITH, group, Δ Treatment/Δ Blank x 100%
[5] = 0.00032 mg/rat ITH, group, Δ Blank 30.2
[6] = 0.0032 mg/rat ITH, individual rat
[7] = 0.0032 mg/rat ITH, group, Δ Treatment/Δ Blank x 100%, ≥50% considered significant
[8] = 0.0032 mg/rat ITH, group, Δ Blank 32.9

## CC(Oc1c(Cl)cccc1Cl)C1=NCCN1 (stereo not drawn) [Lofexidine HCl]
[1]; 0.00032 mg/rat ITH
  analgesic effect: slight analgesic effect
  Tactile Pressure (g) Post-treatment 15min.: 26.6 g and 26.9 g and 28.6 g and 23.1 g (2×) and 21.6 g and 17.6 g and 23.3 g and 15.5 g and 18.4 g and 21.1 g and 19.3 g and 23.6 g and 20.5 g and 24.6 g and 20.1 g and 17.9 g and 19.2 g and 14.4 g and 20.6 g
  Tactile Pressure (g) Post-treatment 30min.: 25.9 g and 23.6 g and 32.5 g and 18.6 g and 25.7 g and 28.4 g and 26.0 g and 20.6 g and 22.3 g and 20.4 g and 17.3 g and 24.6 g and 21.6 g and 22.5 g and 24.4 g and 24.3 g and 20.0 g and 19.4 g and 18.2 g and 19.2 g
  Tactile Pressure (g) Post-treatment 60min.: 23.3 g and 27.3 g and 23.6 g and 26.6 g and 22.9 g and 19.7 g (2×) and 24.4 g and 19.2 g and 19.9 g and 20.3 g and 22.6 g and 18.4 g and 25.1 g and 21.2 g and 22.0 g and 16.2 g and 21.1 g and 20.5 g and 21.6 g
  Tactile Pressure (g) Post-treatment 120 min.: 20.6 g (3×) and 21.0 g (2×) and 17.2 g and 19.9 g (2×) and 24.3 g and 21.2 g and 18.9 g and 21.6 g and 22.0 g and 18.0 g and 20.3 g and 22.4 g (2×) and 23.9 g and 18.6 g and 16.8 g
  Tactile Pressure (g) Post-treatment 15min. Mean: 21.3 g
  Tactile Pressure (g) Post-treatment 30min. Mean: 22.8* g
  Tactile Pressure (g) Post-treatment 60min. Mean: 21.8 g
  Tactile Pressure (g) Post-treatment 120 min. Mean: 20.6 g
[1]; [3]
  Tactile Pressure (g) Post-treatment 15min. Ave.: 26.3 g and 21.4 g and 18.6 g and 22.2 g and 18.0 g
  Tactile Pressure (g) Post-treatment 30min. Ave.: 25.2 g (2×) and 21.2 g and 23.2 g and 19.2 g
  Tactile Pressure (g) Post-treatment 60min. Ave.: 25.2 g and 21.6 g and 20.3 g and 22.0 g and 19.9 g
  Tactile Pressure (g) Post-treatment 120 min. Ave.: 19.7 g and 21.4 g and 21.2 g (2×) and 19.4 g
  %Inh 15min.: 14.9% and 2.5% and -5.6% and 8.0% and -7.4%
  %Inh 30min.: 11.1% and 12.8% and 4.1% and 11.4% and -3.2%
  %Inh 60min.: 11.1% and 3.0% and 0.8% and 7.4% and -0.7%
  %Inh 120 min.: -7.4% and 2.5% and 4.1% and 4.7% and -2.5%
[1]; [4]
  %Inh 15min.: 2.6%
  %Inh 30min.: 7.6%
  %Inh 60min.: 4.3%
  %Inh 120 min.: 0.3%
[1]; [5]
  Δ Treatment 15min.: 0.8 g
  Δ Treatment 30min.: 2.3 g
  Δ Treatment 60min.: 1.3 g
  Δ Treatment 120 min.: 0.1 g
[1]; 0.0032 mg/rat ITH
  Tactile Pressure (g) Post-treatment 15min.: 48.4 g and 47.2 g and 55.3 g and 30.4 g and 23.5 g and 48.7 g and 43.0 g and 36.2 g and 32.4 g and 33.8 g and 21.4 g and 31.9 g and 37.7 g and 42.5 g (2×) and 34.5 g and 30.5 g and 40.7 g and 60.0 g and 40.6 g
  Tactile Pressure (g) Post-treatment 30min.: 36.4 g and 34.8 g and 44.1 g and 39.3 g and 34.1 g and 44.0 g and 38.1 g and 36.5 g and 36.8 g and 28.8 g and 30.3 g and 33.2 g and 34.5 g and 40.1 g and 37.2 g and 26.8 g and 27.7 g and 44.2 g and 54.3 g and 50.8 g
  Tactile Pressure (g) Post-treatment 60min.: 33.6 g and 35.6 g and 35.5 g and 36.7 g and 29.0 g and 28.5 g and 40.6 g and 31.8 g and 16.1 g and 16.5 g and 21.8 g and 16.6 g and 24.3 g and 26.8 g and 21.3 g and 21.1 g and 31.3 g and 41.3 g and 32.5 g and 49.5 g
  Tactile Pressure (g) Post-treatment 120 min.: 29.3 g and 21.6 g (2×) and 20.4 g and 19.2 g and 22.9 g and 22.1 g and 21.4 g and 14.5 g and 21.5 g and 17.6 g and 18.8 g and 16.2 g and 22.6 g and 24.7 g and 18.6 g and 31.1 g and 28.6 g and 27.9 g and 28.7 g
  Tactile Pressure (g) Post-treatment 15min. Mean: 39.1* g
  Tactile Pressure (g) Post-treatment 30min. Mean: 37.6* g
  Tactile Pressure (g) Post-treatment 60min. Mean: 29.6 g
  Tactile Pressure (g) Post-treatment 120 min. Mean: 22.5 g
[1]; [6]
  Tactile Pressure (g) Post-treatment 15min. Ave.: 45.3 g and 37.9 g and 29.9 g and 36.3 g and 46.0 g
  Tactile Pressure (g) Post-treatment 30min. Ave.: 38.7 g and 38.2 g and 32.3 g and 34.7 g and 44.3 g
  Tactile Pressure (g) Post-treatment 60min. Ave.: 35.4 g and 32.5 g and 17.8 g and 23.4 g and 38.7 g
  Tactile Pressure (g) Post-treatment 120 min. Ave.: 22.6 g and 22.0 g and 18.1 g and 20.5 g and 29.1 g
  %Inh 15min.: 67.7% and 46.2% and 39.2% and 41.8% and 84.2%
  %Inh 30min.: 48.4% and 47.0% and 47.7% and 36.7% and 78.8%
  %Inh 60min.: 38.7% and 32.5% and -3.5% and 0.9% and 60.8%
  %Inh 120 min.: 1.2% and 5.8% and -2.5% and -8.2% and 29.9%
[1]; [7]
  %Inh. 15 min.: (55.9) %
  %Inh. 30min.: (51.4) %
  %Inh. 60min.: 27.1%
  %Inh. 120 min.: 5.5%
[1]; [8]
  Δ Treatment 15min.: 18.4 g
  Δ Treatment 30min.: 16.9 g
  Δ Treatment 60min.: 8.9 g
  Δ Treatment 120 min.: 1.8 g
[1]; 0.0032 mg/rat intrathecal, at 15 and 30 minute time points, compared with Δ blank values
  analgesic effect against post-operative pain: demonstrated analgesic effect
[2]
  common symptoms associated with use: drowsiness, sedation and blood pressure and heart rate increases
